The text below walks through data of patent publication US10077247B2, “Tricyclic spiro compound” (ONO PHARMACEUTICAL CO., LTD., priority 2015, dated 2018).

One data set addresses rat EP4 receptor (Rattus norvegicus (Rat), UniProt P43114). Nature of the data set: EP4 antagonistic activity measurement using prostanoid receptor subtype expressing cells (cAMP). It is filed as cell-based. The settings on record: CHO cells expressing rat EP4 receptor; inhibition of cAMP production by PGE2 10 nM. The procedure:
CHO cells expressing rat EP4 receptor subtypes were prepared according to the methods of Nishigaki et al. (FEBS Letters, Vol. 364, p. 339-341, 1995), and used for experiment. Cultured subconfluent cells were detached, and suspended in an assay medium (MEM containing 1 mmol/L IBMX, 1% HSA) in a concentration of 1×10^6 cells/mL. For reaction, PGE2 was added to the cell suspension (25 μL) in a final concentration of 10 nmol/L, either alone or as a 25-μL PGE2 solution containing the test compound. After 30 minutes of reaction at room temperature, the amount of cAMP in the cells was quantified according to the method in the descriptions of the cAMP assay kit (CISBIO).
The antagonistic effect (IC50 value) of the test compound was calculated as a value that represents an inhibition rate against a reaction with PGE2 alone at 10 nM, a concentration that produces a submaximal cAMP producing effect.

The nature of data set [1]: Pharmacokinetics test (hepatic microsome stability test). The settings on record: human hepatic microsome 1 mg/mL, 37° C., 60 min, 1 μmol/L.

By IC50 is commonly meant the concentration that gives 50% inhibition.

rat EP4 receptor, sequence (P43114 whole entry): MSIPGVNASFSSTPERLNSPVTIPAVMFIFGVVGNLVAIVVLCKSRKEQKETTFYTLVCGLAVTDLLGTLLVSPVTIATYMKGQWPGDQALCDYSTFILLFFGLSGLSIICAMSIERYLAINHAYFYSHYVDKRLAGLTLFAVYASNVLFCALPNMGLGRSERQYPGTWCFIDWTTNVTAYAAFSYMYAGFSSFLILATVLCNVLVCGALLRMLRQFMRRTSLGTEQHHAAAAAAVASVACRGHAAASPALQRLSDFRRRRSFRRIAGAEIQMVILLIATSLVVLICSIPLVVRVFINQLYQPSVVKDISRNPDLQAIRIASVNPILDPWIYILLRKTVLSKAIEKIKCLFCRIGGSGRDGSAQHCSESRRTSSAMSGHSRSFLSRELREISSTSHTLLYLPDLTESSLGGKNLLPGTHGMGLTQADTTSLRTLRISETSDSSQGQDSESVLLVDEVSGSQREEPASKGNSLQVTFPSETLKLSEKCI

On rat EP4 receptor, `Cc1noc(-c2ccc3c(c2)[C@]2(CCO3)C[C@H]2C(=O)Nc2cc(C#N)ccc2CCCC(=O)O)n1` [Example 5, 4-[4-Cyano-2-({[(2′R,4S)-6-(3-methyl-1,2,4-oxadiazol-5-yl)-2,3-dihydrospiro[chromene-4,1′-cyclopropan]-2′-yl]carbonyl}amino)phenyl]butanoic acid] yielded an IC50 of 2.8 nM. Also, the “Remaining rate (%)” value in data set [1] amounted to 80%.

The compound `N#Cc1ccc(CCCC(=O)O)c(NC(=O)[C@@H]2C[C@]23CCOc2ccc(C(=O)Nc4ccno4)cc23)c1` [Example 2-41, 4-[4-Cyano-2-({[(2′R,4S)-6-(1,2-oxazol-5-ylcarbamoyl)-2,3-dihydrospiro[chromene-4,1′-cyclopropan]-2′-yl]carbonyl}amino)phenyl]butanoic acid] showed an IC50 at rat EP4 receptor of 3.4 nM. Further, the “Remaining rate (%)” value in data set [1] is 100%.

On rat EP4 receptor, `N#Cc1ccc(CCCC(=O)O)c(NC(=O)[C@@H]2C[C@]23CCOc2ccc(C(=O)Nc4cccnn4)cc23)c1` [Example 2-29, 4-[4-Cyano-2-({[(2′R,4S)-6-(3-pyridazinylcarbamoyl)-2,3-dihydrospiro[chromene-4,1′-cyclopropan]-2′-yl]carbonyl}amino)phenyl]butanoic acid] came in with a 50% inhibitory concentration (IC50) of 2.5 nM. Further, the “Remaining rate (%)” value in data set [1] amounted to 80%.

`N#Cc1ccc(CCCC(=O)O)c(NC(=O)[C@@H]2C[C@]23CCOc2ccc(-c4ccc(F)nc4)cc23)c1` [Example 7-17, 4-[4-Cyano-2-({[(2′R,4S)-6-(6-fluoro-3-pyridinyl)-2,3-dihydrospiro[chromene-4, 1′-cyclopropan]-2′-yl]carbonyl}amino)phenyl]butanoic acid] had a 50% inhibitory concentration (IC50) on rat EP4 receptor of 6.1 nM. Also, in data set [1], the “Remaining rate (%)” value turned out to be 82%.

Consider `CN1CC[C@H](NC(=O)c2ccc3c(c2)[C@]2(CCO3)C[C@H]2C(=O)Nc2cc(C#N)ccc2CCCC(=O)O)C1` [Example 2-33, 4-[4-Cyano-2-({[(2′R,4S)-6-{[(3S)-1-methyl-3-pyrrolidinyl]carbamoyl}-2,3-dihydrospiro[chromene-4,1′-cyclopropan]-2′-yl]carbonyl}amino)phenyl]butanoic acid], for which the half-inhibitory concentration (IC50) on rat EP4 receptor came to 9.7 nM. Besides, the “Remaining rate (%)” value in data set [1] amounted to 89%.

Take `COCCNC(=O)c1ccc2c(c1)[C@]1(CO2)C[C@H]1C(=O)Nc1cc(C#N)ccc1CCCC(=O)O` [Example 37-2, 4-{4-Cyano-2-[({(2′R,3S)-5-[(2-methoxyethyl)carbamoyl]spiro[1-benzofuran-3,1′-cyclopropan]-2′-yl}carbonyl)amino]phenyl}butanoic acid]: the IC50 on rat EP4 receptor was 6.2 nM. Further, the “Remaining rate (%)” value in data set [1] is on record as 87%.

On rat EP4 receptor, `Cn1cc(-c2ccc3c(c2)[C@]2(CCO3)C[C@H]2C(=O)Nc2cc(C#N)ccc2CCCC(=O)O)nn1` [Example 10-4, 4-[4-Cyano-2-({[(2′R,4S)-6-(1-methyl-1H-1,2,3-triazol-4-yl)-2,3-dihydrospiro[chromene-4,1′-cyclopropan]-2′-yl]carbonyl}amino)phenyl]butanoic acid] came in with an IC50 of 3.5 nM. Moreover, in data set [1], the “Remaining rate (%)” value is 73%.

Turning to `N#Cc1ccc(CCCC(=O)O)c(NC(=O)[C@@H]2C[C@]23CCOc2ccc(-c4ccccc4)cc23)c1` [Example 7-1, 4-[4-Cyano-2-({[(2′R,4S)-6-phenyl-2,3-dihydrospiro[chromene-4,1′-cyclopropan]-2′-yl]carbonyl}amino)phenyl]butanoic acid], at rat EP4 receptor, the IC50 was 17 nM. Also, the “Remaining rate (%)” value in data set [1] was found to be 81%.

`N#Cc1ccc(CCCC(=O)O)c(NC(=O)[C@@H]2C[C@]23CCOc2ccc(C(=O)Nc4ccccn4)cc23)c1` [Example 2-23, 4-[4-Cyano-2-({[(2′R,4S)-6-(2-pyridinylcarbamoyl)-2,3-dihydrospiro[chromene-4,1′-cyclopropan]-2′-yl]carbonyl}amino)phenyl]butanoic acid] registered an IC50 on rat EP4 receptor of 4.5 nM. Further, the “Remaining rate (%)” value in data set [1] is listed as 100%.

As for `CC(C)(C)n1cc(NC(=O)c2ccc3c(c2)[C@]2(CCO3)C[C@H]2C(=O)Nc2cc(C#N)ccc2CCCC(=O)O)cn1` [Example 2-39, 4-[4-Cyano-2-({[(2′R,4S)-6-{[1-(2-methyl-2-propanyl)-1H-pyrazol-4-yl]carbamoyl}-2,3-dihydrospiro[chromene-4,1′-cyclopropan]-2′-yl]carbonyl}amino)phenyl]butanoic acid], the midpoint of inhibition against rat EP4 receptor, the IC50, lay at 3.4 nM. Moreover, the “Remaining rate (%)” value in data set [1] stood at 90%.

Consider `N#Cc1ccc(CCCC(=O)O)c(NC(=O)[C@@H]2C[C@]23CCOc2ccc(C(=O)Nc4ccon4)cc23)c1` [Example 2-37, 4-[4-Cyano-2-({[(2′R,4S)-6-(1,2-oxazol-3-ylcarbamoyl)-2,3-dihydrospiro[chromene-4,1′-cyclopropan]-2′-yl]carbonyl}amino)phenyl]butanoic acid], for which, at rat EP4 receptor, it took 3.4 nM to reach half-maximal inhibition (IC50). For the same compound, the “Remaining rate (%)” value in data set [1] is 97%.

`N#Cc1ccc(CCCC(=O)O)c(NC(=O)[C@@H]2C[C@]23CCOc2ccc(C(=O)NC4CCOCC4)cc23)c1` [Example 2-40, 4-[4-Cyano-2-({[(2′R,4S)-6-(tetrahydro-2H-pyran-4-ylcarbamoyl)-2,3-dihydrospiro[chromene-4,1′-cyclopropan]-2′-yl]carbonyl}amino)phenyl]butanoic acid] displayed an IC50 at rat EP4 receptor of 7.2 nM. Also, in data set [1], the “Remaining rate (%)” value turned out to be 100%.

For the compound `CNC(=O)c1ccc2c(c1)[C@]1(CO2)C[C@H]1C(=O)Nc1cc(C#N)ccc1CCCC(=O)O` [Example 37-1, 4-[4-Cyano-2-({[(2′R,3S)-5-(methylcarbamoyl)spiro[1-benzofuran-3,1′-cyclopropan]-2′-yl]carbonyl}amino)phenyl]butanoic acid], the IC50 against rat EP4 receptor came out at 7.2 nM. Besides, the “Remaining rate (%)” value in data set [1] stood at 77%.

At rat EP4 receptor, `N#Cc1ccc(CCCC(=O)O)c(NC(=O)[C@@H]2C[C@]23CCOc2ccc(C(=O)NC4CC4)cc23)c1` [Example 2-10, 4-[4-cyano-2-({[(2′R,4S)-6-(cyclopropylcarbamoyl)-2,3-dihydrospiro[chromene-4,1′-cyclopropan]-2′-yl]carbonyl}amino)phenyl]butanoic acid] came in with an IC50 of 4 nM. In addition, the “Remaining rate (%)” value in data set [1] is 94%.

As for `COCCNC(=O)c1ccc2c(c1)[C@@]1(C[C@H]1C(=O)Nc1cc(C#N)ccc1CCCC(=O)O)CC2(C)C` [Example 38-1, 4-[4-Cyano-2-({[(1S,2R)-6′-[(2-methoxyethyl)carbamoyl]-3′,3′-dimethyl-2′,3′-dihydrospiro[cyclopropane-1, 1′-inden]-2-yl]carbonyl}amino)phenyl]butanoic acid], on rat EP4 receptor, the IC50 is 5.4 nM. In addition, the “Remaining rate (%)” value in data set [1] is recorded as 69%.

In turn, `CC1(C)C[C@]2(C[C@H]2C(=O)Nc2cc(C#N)ccc2CCCC(=O)O)c2cc(-c3cccnc3)ccc21` [Example 39, 4-[4-Cyano-2-({[(1S,2R)-3′,3′-dimethyl-6′-(3-pyridinyl)-2′,3′-dihydrospiro[cyclopropane-1,1′-inden]-2-yl]carbonyl}amino)phenyl]butanoic acid] showed an IC50 against rat EP4 receptor of 5.7 nM. Further, the “Remaining rate (%)” value in data set [1] was 78%.

Turning to `N#Cc1ccc(CCCC(=O)O)c(NC(=O)[C@@H]2C[C@]23CCOc2ccc(-c4ncco4)cc23)c1` [Example 10-3, 4-[4-Cyano-2-({[(2′R,4S)-6-(1,3-oxazol-2-yl)-2,3-dihydrospiro[chromene-4,1′-cyclopropan]-2′-yl]carbonyl}amino)phenyl]butanoic acid], the IC50 at rat EP4 receptor turned out to be 5.7 nM. The “Remaining rate (%)” value in data set [1] is given as 87%.

With `Cn1cc(NC(=O)c2ccc3c(c2)[C@]2(CC3)C[C@H]2C(=O)Nc2cc(C#N)ccc2CCCC(=O)O)cn1` [Example 18-3, 4-{4-Cyano-2-[({(1R,2R)-6′-[(1-methyl-1H-pyrazol-4-yl)carbamoyl]-2′,3′-dihydrospiro[cyclopropane-1,1′-inden]-2-yl}carbonyl)amino]phenyl}butanoic acid], at rat EP4 receptor, 2.7 nM corresponded to half-maximal inhibition (IC50). The “Remaining rate (%)” value in data set [1] is 91%.

At rat EP4 receptor, `COCCNC(=O)c1ccc2c(c1)[C@]1(CC2)C[C@H]1C(=O)Nc1cc(C#N)ccc1CCCC(=O)O` [Example 18-2, 4-{4-Cyano-2-[({(1R,2R)-6′-[(2-methoxyethyl)carbamoyl]-2′,3′-dihydrospiro[cyclopropane-1,1′-inden]-2-yl}carbonyl)amino]phenyl}butanoic acid] gave an IC50 of 3 nM. The “Remaining rate (%)” value in data set [1] stood at 100%.

On rat EP4 receptor, `N#Cc1ccc(CCCC(=O)O)c(NC(=O)[C@@H]2C[C@]23CCOc2ccc(-n4cccn4)cc23)c1` [Example 7-4, 4-[4-Cyano-2-({[(2′R,4S)-6-(1H-pyrazol-1-yl)-2,3-dihydrospiro[chromene-4,1′-cyclopropan]-2′-yl]carbonyl}amino)phenyl]butanoic acid] gave an IC50 of 2.4 nM. Besides, the “Remaining rate (%)” value in data set [1] was found to be 71%.

The compound `CNc1ccc(-c2ccc3c(c2)[C@]2(CCO3)C[C@H]2C(=O)Nc2cc(C#N)ccc2CCCC(=O)O)cn1` [Example 7-21, 4-{4-Cyano-2-[({(2′R,4S)-6-[6-(methylamino)-3-pyridinyl]-2,3-dihydrospiro[chromene-4,1′-cyclopropan]-2′-yl}carbonyl)amino]phenyl}butanoic acid] gave an IC50 against rat EP4 receptor of 10 nM. Also, the “Remaining rate (%)” value in data set [1] turned out to be 76%.

The compound `N#Cc1ccc(CCCC(=O)O)c(NC(=O)[C@@H]2C[C@]23CCOc2ccc(-c4cnc5[nH]ccc5c4)cc23)c1` [Example 7-19, 4-[4-Cyano-2-({[(2′R,4S)-6-(1H-pyrrolo[2,3-b]pyridin-5-yl)-2,3-dihydrospiro[chromene-4,1′-cyclopropan]-2′-yl]carbonyl}amino)phenyl]butanoic acid] registered an IC50 against rat EP4 receptor of 4.5 nM. In addition, the “Remaining rate (%)” value in data set [1] is 100%.
